Earlier results, collected in publication PMC3819103 (Magnetic resonance in medicine : official journal of the …, 2010).

Tested on: blood-brain barrier

β-Ala(Mys)-Arg-Arg-Arg-Arg-Arg-Arg-Arg-Cys-NH2 [MPAP]
Ability to cross the blood-brain barrier and localization: could cross the blood-brain barrier, followed by localization to the cytoplasm | Delivery of a near-infrared dye across the blood-brain barrier (earlier studies): can deliver a near-infrared dye across the blood-brain barrier
